According to article PMC5059921, “Chalepin: isolated from Ruta angustifolia L. Pers induces mitochondrial mediated apoptosis in lung carcinoma cells” (BMC Complementary and Alternative Medicine, 2016):
Like-named read-outs stand apart in the source and are kept apart here.

How the values were obtained:
caspase 3 in A549 cells = assay: Caspase-3 activity (CaspILLUME, flow cytometry); type: cell-based, human; conditions: for active caspase 3, V1-R (apoptotic population): 45 ug/ml; for fold increase of caspase 3 activity vs untreated control: 45 μg/ml
Experimental: (§1) Caspase activity assays were performed according to the instructions in the manual (CaspILLUME, Genetex). Cells were seeded at a density of 1×10^6 cells per culture dish. After being subjected to treatment for 48 and 72 h, the cells were detached with accutase, washed, and resuspended in PBS. Next, 300 μL of each sample was aliquoted into centrifuge tubes, after which 1 μL of fluorescent substrate (FITC-DEVD-FMK for caspase 3 and FITC-LEHD-FMK for caspase 9 activity) was added to each tube and incubated for 1 h at 37°C incubator. At the end of the incubation period, the cells were centrifuged at 3000 rpm for 5 min and the supernatant was removed. After that, the cells were resuspended in 0.5 mL wash buffer (provided in the kit) and centrifuged at 3000 rpm for 5 min. This step was repeated before performing the analysis with flow cytometer (Accuri C6) and a minimum of 10,000 events were acquired for each replicate.

[1] = test system: MRC5 (human normal lung fibroblasts); assay: SRB in vitro cytotoxicity screening (toxicity to normal cells); type: cell-based; conditions: Homo sapiens, MRC5, isolated compounds, 72 h, read-out: IC50 in μg/ml (μM) (MRC5) 72 h (converted)
Experimental: The human cell lines A549 (lung cancer) and Ca Ski (cervical cancer) were cultured as monolayer in RPMI 1640 growth media whereas HCT-116 (colon cancer) and MRC5 (human normal lung fibroblasts) was cultured in McCoy’s 5A and EMEM medium, respectively. All cells were purchased from the […] (ATCC, USA). All the media were supplemented with 10 % v/v foetal bovine serum (FBS), 100 μg/mL penicillin/streptomycin, and 50 μg/mL amphotericin B. The cells were cultured in a 5 % CO2 incubator at 37 °C.
The monolayer cell culture was detached using accutase and the cell count was adjusted to 2.5 x10^5 -3.0 x10^5 cells/mL using medium containing feotal bovine serum. The cells were then plated into 96 wells with a cell density of 5000-7000 cells/well and then incubated for 24 h to allow adherence of cells to the base of well of the plates. The media was then removed and 200 μl of fresh media containing different concentration of various extracts or isolated compounds were added. Cisplatin was used as the positive control. The plates were incubated for 24, 48 and 72 h at 37 °C and 5 % CO2. The cytotoxicity of the extracts and isolated compounds were screened using the […] (SRB) assay. This assay was first described by Houghton in 2007 [8]. The incubation was halted by gentle addition of 50 μl ice cold 4 % trichloroacetic acid (TCA) to each well and the plates were incubated at 4 °C for 1 h. Then, the supernatant was discarded and the plates were washed with distilled water for 5 times and then air dried. SRB dye, 50 μl, (0.4 % w/v) was added into each well and the treated cells and control were incubated at room temperature for 30 min. The unbound dye was removed by rapid washing four times with 1 % acetic acid. The plates were then air dried and 100 μl of tris base (10 mM unbuffered, pH 10.5) was added and the plates were shaken at 500 rpm for 5 min to solublize the bound SRB stain. The plates were then read with an ELISA reader (Synergy H1 Hybrid) at an absorbance of 492 nm.

[2] = test system: hepatitis C virus, hepatoma cell line (Huh7.5); parameters: method as in PMID 25454460; conditions: cited from earlier work
A549 cells [3] = assay: Intracellular ROS measurement (DCFH-DA); type: cell-based, human; conditions: A549, 45 μg/ml, 6 h incubation
Experimental: The assay was conducted as described by Ling et al. with some minor modifications. The ROS measurement was done using the fluorescent probe 2’,7’-dichlorofluorescein diacetate (DCFH-DA) that enabled the monitoring of intracellular accumulation of ROS. The A549 cells were seeded into a 96 well plate with a density of 2×10^4 cells per well and allowed to attach overnight. Treatment with chalepin at various concentrations were done the next day and incubated for different time periods. At the end of the incubation period, the media was removed and 5 μM of DCFH-DA which is diluted in media was added to the cells and incubated for 40 min at 37 °C. The cells were then washed three times with clear media and the fluorescence intensity (excitation = 485 nm and emission = 530 nm) was measured using a microplate reader. The morphology of the cells were observed using a fluorescence microscope.

A549 cells [4] = assay: Western blot analysis of apoptotic proteins; type: cell-based, human
caspase 9 in A549 cells = assay: Caspase-9 activity (CaspILLUME, flow cytometry); type: cell-based, human; conditions: 45 μg/ml
Experimental: as §1

[5] = A549, 36 μg/ml, 2,4,8,12 and 24 h

C=CC(C)(C)c1cc2cc3c(cc2oc1=O)O[C@H](C(C)(C)O)C3 [Chalepin, chalepin]
active caspase 3, V1-R (apoptotic population) (caspase 3 in A549 cells; A549, 48 h): 26.40 ± 0.79% | fold increase of caspase 3 activity vs untreated control (caspase 3 in A549 cells; A549, 48 h): 9.32 fold | active caspase 3, V1-R (apoptotic population) (caspase 3 in A549 cells; A549, 72 h): 49.07 ± 0.63% | fold increase of caspase 3 activity vs untreated control (caspase 3 in A549 cells; A549, 72 h): 8.71 fold | IC50 ([1]; value in brackets): 74.5 µM | IC50 [1]: 23.4 ± 0.6 µg/mL | replication of hepatitis C virus [2]: stop the replication | ROS fold increase vs untreated control (A549 cells [3]): 62.24 fold | Procaspase 3 (A549 cells [4]; [5]): downregulation | Procaspase 9 (A549 cells [4]; [5]): downregulation | anti-apoptotic gene products Bcl-2, survivin, XIAP, Bcl-xl and cFLIP (A549 cells [4]; [5]): downregulate | cleaved caspase 3 (A549 cells [4]; [5]): upregulation | expression of Bax (A549 cells [4]; [5]): upregulation | expression of cytochrome c (A549 cells [4]; [5]): upregulation | expression of p53 (A549 cells [4]; [5]): upregulation | quantity of PARP expressed (A549 cells [4]; [5]): decreased with time | Bak (A549 cells [4]; A549, 36 μg/ml, time dependently): upregulated | active caspase 9, V1-R (apoptotic population) (caspase 9 in A549 cells; A549, 48 h): 22.57 ± 0.21% | active caspase 9, V1-R (apoptotic population) (caspase 9 in A549 cells; A549, 72 h): 33.5 ± 0.35% | fold increase in activation of caspase 9 vs untreated control (caspase 9 in A549 cells; A549, 72 h): 8.44 fold
